# Source: patent US12583858B2 (Genentech, Inc., priority 2015, dated 2026)
# pEC50: −log10 of the molar value.
# Target: T1, TDO2 (Homo sapiens, UniProt P48775)
# T1 construct: decreased levels of NFK in SW48 cells (high TDO expressing cells)
# Assay: TDO2 cell assay (NFK GreenScreen, SW48 cells)
# Type: cell-based
# Conditions: SW48 cells (high TDO expressing), 200 uM tryptophan, 24 hours; Table 3; read-out: TDO2 Cell Fluor EC50
# T1 sequence (P48775 whole entry): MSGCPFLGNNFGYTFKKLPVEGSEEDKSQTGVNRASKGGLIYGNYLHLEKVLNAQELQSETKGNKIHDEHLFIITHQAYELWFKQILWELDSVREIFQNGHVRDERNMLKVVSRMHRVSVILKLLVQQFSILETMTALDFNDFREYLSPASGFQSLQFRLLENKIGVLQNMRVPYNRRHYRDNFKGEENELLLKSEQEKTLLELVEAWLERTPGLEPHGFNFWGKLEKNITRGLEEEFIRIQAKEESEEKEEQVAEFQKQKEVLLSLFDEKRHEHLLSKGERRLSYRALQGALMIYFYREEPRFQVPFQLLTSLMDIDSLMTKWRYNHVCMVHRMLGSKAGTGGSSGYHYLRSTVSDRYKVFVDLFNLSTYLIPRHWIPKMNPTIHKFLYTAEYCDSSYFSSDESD
row,pEC50,Structure (SMILES)
1,< 4.60,"CC(C)(C(N)=O)C(O)C1c2ccccc2-c2cncn21 (single isomer, unassigned) [Example 155b]"
2,5.22,"OC1CC2(COC2)C1C1c2ccccc2-c2cncn21 (single isomer, unassigned) [Example 87c]"
3,5.35,CN(C)S(=O)(=O)N1CC[C@H]([C@H]2c3ccccc3-c3cncn32)[C@@H](O)C1 [Example 78a]
4,6.39,"CC1(C)CCCC(C)(C2c3ccccc3-c3cncn32)C1O (single isomer, unassigned) [Example 90f]"
5,< 4.60,"OC1(C2c3ccccc3-c3cncn32)CCOC1 (single isomer, unassigned) [Example 129a]"
6,4.96,"OC1CC2(CC2)C1C1c2ccccc2-c2cncn21 (single isomer, unassigned) [Example 72g]"
7,4.74,"Nc1cc2n(n1)CC[C@H]([C@H]1c3ccccc3-c3cncn31)[C@H]2O [Example 161a, (4R,5R)-2-amino-5-((S)-5H-imidazo[5,1-a]isoindol-5-yl)-4,5,6,7-tetrahydropyrazolo[1,5-a]pyridin-4-ol]"
8,6.96,"O[C@H]1CC(CF)(CF)[C@H]1[C@@H]1c2ccccc2-c2cncn21 [Example 150c, (1S,2S)-3,3-bis(fluoromethyl)-2-((R)-5H-imidazo[5,1-a]isoindol-5-yl)cyclobutan-1-ol]"
9,< 4.60,"Cn1cc2c(n1)CCC(C1c3ccccc3-c3cncn31)C2O (single isomer, unassigned) [Example 130c]"
10,4.85,"OC1CCCCCC1C1c2ccccc2-c2cncn21 (single isomer, unassigned) [Example 115a, 2-(5H-imidazo[5,1-a]isoindol-5-yl)cycloheptan-1-ol]"
11,6.46,"CC1(O)CCC1C1c2ccccc2-c2cncn21 (single isomer, unassigned) [Example 35d]"
12,5.27,"OC(C1c2ccccc2-c2cncn21)C1(F)CC1 (single isomer, unassigned) [Example 154c]"
13,4.96,"N#CC1(C(O)C2c3ccccc3-c3cncn32)CC1 (single isomer, unassigned) [Example 153b]"
14,< 4.60,"OC1CCCCC1C1c2ccccc2-c2cncn21 (single isomer, unassigned) [Example 03c]"
15,5.92,"Cn1cc2c(n1)CCC(C1c3ccccc3-c3cncn31)C2O (single isomer, unassigned) [Example 130f]"
16,< 4.60,"OC1c2cnccc2CC1C1c2ccccc2-c2cncn21 (single isomer, unassigned) [Example 71f]"
17,6.05,"CC(C)(C)OC(=O)N1CCCC(O)(C2c3ccccc3-c3cncn32)C1 (single isomer, unassigned) [Example 127b]"
18,5.06,"CC1(C)CCCC(C2c3ccccc3-c3cncn32)C1O (single isomer, unassigned) [Example 24b]"
19,6.89,"CC1(C)CCCC(C2c3ccccc3-c3cncn32)C1O (single isomer, unassigned) [Example 24e]"
20,4.80,"OC1CC2(CCC2)C1C1c2ccccc2-c2cncn21 (single isomer, unassigned) [Example 67h]"
21,4.96,"NS(=O)(=O)N1CCC2(CC1)CC(C1c3ccccc3-c3cncn31)C2O (single isomer, unassigned) [Example 181h]"

row,pEC50,Structure (SMILES)
1,5.48,"OC1CCC1C1c2ccccc2-c2cncn21 (single isomer, unassigned) [Example 01g]"
2,5.46,"OC1COCCC1C1c2ccc(F)cc2-c2cncn21 (single isomer, unassigned) [Example 33c]"
3,< 4.60,"OC(c1ccncc1)C1c2ccccc2-c2cncn21 (single isomer, unassigned) [Example 152c]"
4,4.80,"CC(O)(c1ncc[nH]1)C1c2ccccc2-c2cncn21 (single isomer, unassigned) [Example 143c]"
5,< 4.60,"OC1c2cc(CF)nn2CCC1C1c2ccccc2-c2cncn21 (single isomer, unassigned) [Example 95a]"
6,7.44,"OC1CCCCC1C1c2ccccc2-c2cncn21 (single isomer, unassigned) [Example 03d]"
7,< 4.60,"OC1c2nccn2CCC1C1c2ccccc2-c2cncn21 (single isomer, unassigned) [Example 88c]"
8,< 4.60,"N#CC1CCC(O)(C2c3ccccc3-c3cncn32)CC1 (single isomer, unassigned) [Example 145d]"
9,5.01,"CN(C)C(=O)c1ccc2c(c1)CCC(C1c3ccccc3-c3cncn31)C2O (single isomer, unassigned) [Example 98h]"
10,6.85,"CS(=O)(=O)c1ccc2c(c1)CCC(C1c3ccccc3-c3cncn31)C2O (single isomer, unassigned) [Example 36f]"
11,5.09,"O[C@H]1[C@H]([C@@H]2c3ccccc3-c3cncn32)CCCC1(F)F (single isomer, unassigned) [Example 106c]"
12,5.62,"NC(=O)c1ccc2c(c1)CC[C@H](C1c3ccccc3-c3cncn31)[C@H]2O (stereo in doubt) [Example 60c, (5R,6R)-5-hydroxy-6-((S)-5H-imidazo[5,1-a]isoindol-5-yl)-5,6,7,8-tetrahydronaphthalene-2-carboxamide]"
13,5.28,"N[C@@H]1COC[C@@H]1[C@H]1c2ccccc2-c2cncn21 (single isomer, unassigned) [Example 32c]"
14,6.68,"OC1C(C2c3ccccc3-c3cncn32)CC12CCOCC2 (single isomer, unassigned) [Example 57g]"
15,4.74,"OC1CC(CF)(CF)C1C1c2ccccc2-c2cncn21 (single isomer, unassigned) [Example 150d]"
16,6.96,"CC1(C)CCC(C2c3ccccc3-c3cncn32)C1O (single isomer, unassigned) [Example 23d]"
17,< 4.60,"OC1C(C2c3ccc(F)cc3-c3cncn32)CC12CCOCC2 (single isomer, unassigned) [Example 109f]"
18,6.22,"O[C@H]1c2ccncc2CC[C@@H]1[C@@H]1c2ccccc2-c2cncn21 (single isomer, unassigned) [Example 08b]"
19,7.05,"NC(=O)c1ccc2c(c1)C(O)C(C1c3ccccc3-c3cncn31)CC2 (single isomer, unassigned) [Example 122e]"
20,7.17,"CC1(C)OC(C)(C)C(C2c3ccccc3-c3cncn32)C1O (single isomer, unassigned) [Example 84b]"
21,4.92,"O[C@@H]1CN(C2COC2)CC[C@H]1[C@H]1c2ccccc2-c2cncn21 [Example 103, (3S,4S)-4-((S)-5H-imidazo[5,1-a]isoindol-5-yl)-1-(oxetan-3-yl)piperidin-3-ol]"

row,pEC50,Structure (SMILES)
1,< 4.60,"CC1(C)OC(C)(C)C(C2c3ccccc3-c3cncn32)C1O (single isomer, unassigned) [Example 84e]"
2,4.82,"CCS(=O)(=O)N1CCC2(CCC(C3c4ccccc4-c4cncn43)C2O)CC1 (single isomer, unassigned) [Example 76b]"
3,7.14,"OC1c2ccccc2CCC1C1c2ccccc2-c2cncn21 (single isomer, unassigned) [Example 102a]"
4,< 4.60,"OC1CC2(CCC2)C1C1c2ccccc2-c2cncn21 (single isomer, unassigned) [Example 67b]"
5,6.64,"O[C@H]1c2ccncc2CC[C@@H]1[C@H]1c2ccccc2-c2cncn21 (single isomer, unassigned) [Example 08e]"
6,7.15,"CCS(=O)(=O)N1CCC2(CCC(C3c4ccccc4-c4cncn43)C2O)CC1 (single isomer, unassigned) [Example 76c]"
7,< 4.60,"N#CCN1CCC(O)C(C2c3ccccc3-c3cncn32)C1 (single isomer, unassigned) [Example 58b]"
8,< 4.60,"CS(=O)(=O)N1CCC2(CC1)CC(C1c3ccccc3-c3cncn31)C2O (single isomer, unassigned) [Example 179c]"
9,6.40,"CC1(C)CC(O)C1C1c2ccccc2-c2cncn21 (single isomer, unassigned) [Example 22h]"
10,< 4.60,"OC1CCOCC1C1c2c(Cl)cccc2-c2cncn21 (single isomer, unassigned) [Example 69b]"
11,< 4.60,"NC(=O)C1([C@H](O)[C@@H]2c3ccccc3-c3cncn32)CC1 [Example 165d, 1-((S)-hydroxy ((S)-5H-imidazo[5,1-a]isoindol-5-yl)methyl)cyclopropane-1-carboxamide]"
12,< 4.60,"OC1COCCC1C1c2c(Cl)cccc2-c2cncn21 (single isomer, unassigned) [Example 69-1b]"
13,5.49,"CC(C)(C)OC(=O)N1CC2(CC(C3c4ccccc4-c4cncn43)C2O)C1 (single isomer, unassigned) [Example 41d, tert-butyl 7-hydroxy-6-(5H-imidazo[1,5-b]isoindol-5-yl)-2-azaspiro[3.3]heptane-2-carboxylate]"
14,6.00,"O[C@H]1CCOC[C@@H]1[C@H]1c2ccccc2-c2cncn21 [Example 05d, (3S,4S)-3-((S)-5H-imidazo[5,1-a]isoindol-5-yl)-tetrahydro-2H-pyran-4-ol]"
15,< 4.60,"NS(=O)(=O)N1CCC(O)C(C2c3ccccc3-c3cncn32)CC1 (single isomer, unassigned) [Example 101c, 4-hydroxy-5-(5H-imidazo[5,1-a]isoindol-5-yl)azepane-1-sulfonamide]"
16,6.46,"O[C@@H]1c2ccccc2CC[C@H]1[C@@H]1c2ccccc2-c2cncn21 (single isomer, unassigned) [Example 102g]"
17,4.68,"N#Cc1cnc2c(c1)CCC(C1c3ccccc3-c3cncn31)C2O (single isomer, unassigned) [Example 107c]"
18,6.09,"CC1(C)CC(O)(C2c3ccccc3-c3cncn32)C1 (racemic) [Example 147a, 1-(5H-imidazo[5,1-a]isoindol-5-yl)-3,3-dimethylcyclobutan-1-ol]"
19,5.66,"OC1c2cncn2CCC1C1c2ccccc2-c2cncn21 (single isomer, unassigned) [Example 07e]"
20,6.85,"OC1CCCOCC1C1c2ccccc2-c2cncn21 (single isomer, unassigned) [Example 86d]"
21,6.00,"Cc1ccc2c(c1)-c1cncn1C2C1COCC1O (single isomer, unassigned) [Example 171a]"
